# How the values were obtained:
# Experiment in all cases: Biological Example 3 glasshouse assay using various adjuvant systems, post-emergence foliar spray
# Assay type in all cases: in vivo
# [1] = system: Glycine max (GLXMA, soybean) cultivar TMG133; details: 14 DAA (A11: 14 or 15 DAA), adjuvant 0.5% v/v Adigor + 1.0% v/v AMS + 12.5% v/v IPA
# Experimental: (§1) Post-emergence foliar spray application, 200 L/ha, usually one or two replicates for the weeds (depending on application rate), and two replicates for soybean.
# (§2) Standard warm conditions (tropical), in glasshouse. Specifically, the glasshouse bay conditions are 24° C./18° C. day/night; 16/8 hours light/dark; 65% humidity.
# (§3) The herbicidal application takes place at the following growth stages for plants which include inter alia one or more of the following plants (usually the herbicidal application takes place on at least the following plants: DIGSA, ELEIN, SETFA, ZEAMX, GLXMA Nikko, and GLXMA TMG133, and often also either BRADC or BRAPP):
# Glycine max (GLXMA, soybean) cultivar “TMG133”—which is Roundup Ready™ glyphosate-tolerant soybean cultivar TMG133 (typically available from Monsanto in Brazil)—growth stage: 1st trifoliate.
# (§4) Each test compound is applied with one of the following adjuvant systems (all percentages are final concentrations in the aqueous spray mixture):
# (§5) Adjuvant system 1: 0.5% v/v Adigor™ *, 1.0% v/v AMS (ammonium sulphate) and 12.5% v/v IPA (isopropyl alcohol).
# (§6) Adjuvant system 1A: 0.5% v/v Adigor™ * and 12.5% v/v IPA (isopropyl alcohol).
# (§7) CAS Registry no. 166412-78-8), and is usually available from BASF. “Isononyl” in this context is thought to mean a mixture of two or more branched isomers of C9H19. Method: Seeds of the weed (including volunteer) plants, typically including inter alia Digitaria sanguinalis (DIGSA), Eleusine indica (ELEIN), Setaria faberi (SETFA), Zea mays (ZEAMX, corn), and sometimes also [either Brachiaria decumbens (BRADC) or Brachiaria platyphylla (BRAPP)], are sown in seed trays (troughs) containing clay loam soil (pH 7.0, 2.2% organic matter, “Trough Mix A”); and soybean seed is sown in pots containing the same soil with 3 soybean seedlings per pot. The plants are sprayed with the test herbicide when they reach the growth stages mentioned above. The test herbicidal solutions are prepared by mixing the appropriate aliquots of the test substance(s) and one of the adjuvant systems indicated above *** in deionised water to give the desired treatment concentration. The herbicidal application is made as a foliar spray, using a tracksprayer. Following the herbicidal application, the plants are watered twice per day for the duration of the test. A visual assessment of the % herbicidal damage is made 7 and 14 Days After herbicide Application (DAA) (or, in a minority of cases, 7 and 15 DAA), and the results are recorded as % visual herbicidal damage where 0%=no damage to plants and 100%=plant totally killed. *** Adjuvant system=either Adigor™ or Hexamoll DINCH™ or tris-(2-ethylhexyl) phosphate each at 0.5% v/v, and 12.5% v/v IPA (isopropyl alcohol), and 1.0% v/v AMS (ammonium sulphate); or 0.5% v/v Adigor™ and 12.5% v/v IPA (isopropyl alcohol); all percentages are final concentrations in the aqueous spray mixture.
# (§8) Compounds A8, A11 and A17, which are compounds of formula (I) according to the present invention, were tested in a test method substantially as described above.
# (§9) Compound A8 was tested using the 0.5% v/v Adigor™+12.5% v/v IPA adjuvant system. Compounds A11 and A17 were tested using the 0.5% v/v Adigor™+1.0% v/v AMS+12.5% v/v IPA adjuvant system.
# The percentages of herbicidal damage/plant control, at 14 Days After herbicide Application (DAA) (or, in a minority of cases, at 15 DAA), for the Compounds tested and for some of the plants tested, were in the following percentage ranges. […]
# [2] = system: Setaria faberi (SETFA); details: 8 g/ha, 14 DAA (A11: 14 or 15 DAA), adjuvant 0.5% v/v Adigor + 1.0% v/v AMS + 12.5% v/v IPA
# Experimental: as §1, §2, §3
# Setaria faberi (SETFA)—growth stage 12 or 13
# as §4, §5, §6
# (§10) CAS Registry no. […] A visual assessment of the % herbicidal damage is made 7 and 14 Days After herbicide Application (DAA) (or, in a minority of cases, 7 and 15 DAA), and the results are recorded as % visual herbicidal damage where 0%=no damage to plants and 100%=plant totally killed. *** Adjuvant system=either Adigor™ or Hexamoll DINCH™ or tris-(2-ethylhexyl) phosphate each at 0.5% v/v, and 12.5% v/v IPA (isopropyl alcohol), and 1.0% v/v AMS (ammonium sulphate); or 0.5% v/v Adigor™ and 12.5% v/v IPA (isopropyl alcohol); all percentages are final concentrations in the aqueous spray mixture. […]
# (§11) The percentages of herbicidal damage/plant control, at 14 Days After herbicide Application (DAA) (or, in a minority of cases, at 15 DAA), for the Compounds tested and for some of the plants tested, were in the following percentage ranges. […] Phytotoxicity on Glycine max (GLXMA, Soybean) Cultivar “TMG133” Glycine max (GLXMA, soybean) cultivar “TMG133” is Roundup Ready™ glyphosate-tolerant soybean cultivar TMG133, and is typically available from Monsanto in Brazil.
# [3] = system: Digitaria sanguinalis (DIGSA); details: 8 g/ha, 14 DAA (A11: 14 or 15 DAA), adjuvant 0.5% v/v Adigor + 1.0% v/v AMS + 12.5% v/v IPA
# Experimental: as §1, §2, §3
# Digitaria sanguinalis (DIGSA)—growth stage 12 or 13
# as §4, §5, §6, §10
# The percentages of herbicidal damage/plant control, at 14 Days After herbicide Application (DAA) (or, in a minority of cases, at 15 DAA), for the Compounds tested and for some of the plants tested, were in the following percentage ranges. […] Phytotoxicity on Glycine max (GLXMA, Soybean) Cultivar “TMG133” Glycine max (GLXMA, soybean) cultivar “TMG133” is Roundup Ready™ glyphosate-tolerant soybean cultivar TMG133, and is typically available from Monsanto in Brazil. […]
# [4] = system: Brachiaria decumbens (BRADC); details: 8 g/ha, 14 DAA (A11: 14 or 15 DAA), adjuvant 0.5% v/v Adigor + 1.0% v/v AMS + 12.5% v/v IPA
# Experimental: as §1, §2, §3
# Brachiaria decumbens (BRADC)—growth stage (GS) 12 or 13 (or GS 12)—or, if BRADC is not used, then usually Brachiaria platyphylla (BRAPP)—growth stage 12 or 13
# as §4, §5, §6
# (§12) CAS Registry no. 166412-78-8), and is usually available from BASF. “Isononyl” in this context is thought to mean a mixture of two or more branched isomers of C9H19. […] A visual assessment of the % herbicidal damage is made 7 and 14 Days After herbicide Application (DAA) (or, in a minority of cases, 7 and 15 DAA), and the results are recorded as % visual herbicidal damage where 0%=no damage to plants and 100%=plant totally killed. *** Adjuvant system=either Adigor™ or Hexamoll DINCH™ or tris-(2-ethylhexyl) phosphate each at 0.5% v/v, and 12.5% v/v IPA (isopropyl alcohol), and 1.0% v/v AMS (ammonium sulphate); or 0.5% v/v Adigor™ and 12.5% v/v IPA (isopropyl alcohol); all percentages are final concentrations in the aqueous spray mixture. […]
# [5] = system: Zea mays (ZEAMX, maize, corn) cultivar Garland; details: 8 g/ha, 14 DAA (A11: 14 or 15 DAA), adjuvant 0.5% v/v Adigor + 1.0% v/v AMS + 12.5% v/v IPA
# Experimental: as §1, §2, §3
# Zea mays (ZEAMX, maize/corn, e.g. can occur as volunteer corn) cultivar “Garland”—growth stage 12 or 13
# as §4, §5, §6, §12
# [6] = system: Eleusine indica (ELEIN); details: 8 g/ha, 14 DAA (A11: 14 or 15 DAA), adjuvant 0.5% v/v Adigor + 1.0% v/v AMS + 12.5% v/v IPA
# Experimental: as §1, §2, §3
# Eleusine indica (ELEIN)—growth stage 12 or 13
# as §4, §5, §6, §10, §11
# [7] = system: Glycine max (GLXMA, soybean) cultivar Nikko; details: post-emergence, 14 DAA (A11: 14 or 15 DAA), adjuvant 0.5% v/v Adigor + 1.0% v/v AMS + 12.5% v/v IPA
# Experimental: as §1, §2, §3
# Glycine max (GLXMA, soybean) cultivar “Nikko”—growth stage: 1st trifoliate
# as §4, §5, §6, §7, §8, §9
# The percentages of herbicidal damage/plant control, at 14 Days After herbicide Application (DAA) (or, in a minority of cases, at 15 DAA), for the Compounds tested and for some of the plants tested, were in the following percentage ranges. At least for Compounds A8 and A17, the phytotoxicity results shown herein are the average of 2 repetitions (for the grassy weeds, corn and soybean). […] Control of Zea mays (ZEAMX, Corn), a Warm-Climate (Warm-Season) Grassy Plant Zea mays (ZEAMX, maize, corn) is often present as a “volunteer” weed (“volunteer” corn) in fields where it was planted as a crop in preceding growing season(s) and where the present field crop is not corn. […]
smiles,measurement,setting,value
CC#Cc1cc(F)c(C2C(=O)CCCC2=O)c(OC)c1 [Compound A17],"percentage phytotoxicity on Glycine max (GLXMA, soybean) cultivar TMG133",[1]; 120 g/ha,5%
same,"percentage phytotoxicity on Glycine max (GLXMA, soybean) cultivar TMG133",[1]; 240 g/ha,7.5%
same,percentage control of Setaria faberi (SETFA),[2],0%
same,percentage control of Digitaria sanguinalis (DIGSA),[3],0%
same,percentage control of (phytotoxicity on) Brachiaria decumbens (BRADC),[4],0%
same,"percentage control of Zea mays (ZEAMX, maize, corn)",[5],0%
same,percentage control of Eleusine indica (ELEIN),[6],0%
same,"percentage phytotoxicity on Glycine max (GLXMA, soybean) cultivar Nikko",[7]; 120 g/ha,5%
same,"percentage phytotoxicity on Glycine max (GLXMA, soybean) cultivar Nikko",[7]; 240 g/ha,7.5%

# Source: US10696686B2, “Herbicidally active (alkynyl-phenyl)-substituted cyclic dione compounds and derivatives thereof” (Syngenta Limited, priority 2013, dated 2020)
